Test results published in ChEMBL document CHEMBL1128152, “Active-site conformation of 17-(3-pyridyl)androsta-5,16-dien-3-ol, a potent inhibitor of the P450 enzyme C17-hydroxylase/C17-20 lyase” (Bioorg Med Chem Lett, 1995).

Target: T1, Steroid 17-alpha-hydroxylase/17,20 lyase (Homo sapiens, UniProt P05093)
T1 sequence (P05093 whole entry): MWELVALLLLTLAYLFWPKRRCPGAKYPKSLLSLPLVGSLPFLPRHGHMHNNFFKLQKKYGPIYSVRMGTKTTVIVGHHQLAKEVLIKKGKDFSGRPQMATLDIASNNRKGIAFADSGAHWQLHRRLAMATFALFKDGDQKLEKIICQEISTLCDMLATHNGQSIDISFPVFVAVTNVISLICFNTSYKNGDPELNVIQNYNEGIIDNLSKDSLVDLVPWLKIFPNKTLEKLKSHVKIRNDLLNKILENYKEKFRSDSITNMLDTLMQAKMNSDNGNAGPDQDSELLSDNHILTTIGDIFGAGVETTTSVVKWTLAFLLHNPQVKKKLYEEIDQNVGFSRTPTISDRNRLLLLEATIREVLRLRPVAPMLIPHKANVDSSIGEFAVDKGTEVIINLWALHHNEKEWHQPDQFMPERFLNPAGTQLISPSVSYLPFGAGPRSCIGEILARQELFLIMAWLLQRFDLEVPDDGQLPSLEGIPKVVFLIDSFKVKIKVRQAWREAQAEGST
Assay: Inhibition of human Steroid 17-alpha-hydroxylase/17,20 lyase

IC50: ~1 nM
Compound: C[C@]12CC[C@H](O)CC1=CC[C@@H]1[C@@H]2CC[C@]2(C)C(c3cccnc3)=CC[C@@H]12 [ABIRATERONE]
